Test [1] relates to neointima formation. Conditions: rats; cited from earlier work.
For test [2], the target named is CDK4 (Homo sapiens, UniProt P11802). Kind of test: CDK4 kinase assay (Table F). In kind it is biochemical.
For test [3], the target named is CDK5 (Homo sapiens, UniProt Q00535). Kind of test: CDK5 kinase assay (Table F). Type of test: biochemical.
The test system of test [4] is RNA Polymerase II CTD Serine2 Phosphorylation. The test is described as follows: H5 (Ser2) Ab High Content Screen: RNA Polymerase II CTD Serine2 Phosphorylation Assay in Hep3B cells. In kind it is cell-based. Conditions: Homo sapiens, 2 hours with compound, H5 antibody staining.
Test [5] concerns the target T1, CDK1/cyclinB (Homo sapiens, UniProt P06493).
T1 construct: purchased Millipore
Kind of test: CDK1/cyclinB kinase assay, IMAP fluorescence polarization. Type of test: biochemical. The following applies: read-out: CDK1 IC50. The essentials:
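IMAP fluorescence polarization assay on recombinant purified enzyme, compounds at final 1% DMSO. Reaction run 2 h at room temperature, stopped, held 1 h more before reading polarization.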
For orientation: In fluorescence polarisation assays a small probe gives low polarisation when free and higher when bound to something large.

Test [6] deals with T2, CDK9/cyclinT1 (Homo sapiens, UniProt P50750).
T2 construct: purchased Millipore
T2 sequence (P50750 whole entry): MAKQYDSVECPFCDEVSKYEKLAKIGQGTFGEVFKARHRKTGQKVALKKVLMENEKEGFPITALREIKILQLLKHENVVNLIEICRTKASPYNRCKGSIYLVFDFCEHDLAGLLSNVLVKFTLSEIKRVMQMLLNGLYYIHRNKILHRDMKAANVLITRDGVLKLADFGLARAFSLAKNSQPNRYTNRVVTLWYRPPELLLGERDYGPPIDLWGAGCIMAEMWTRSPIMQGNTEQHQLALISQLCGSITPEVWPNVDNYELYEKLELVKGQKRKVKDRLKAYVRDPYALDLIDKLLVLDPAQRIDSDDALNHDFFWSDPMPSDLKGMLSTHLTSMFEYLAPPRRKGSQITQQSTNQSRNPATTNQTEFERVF
T2 sequence (O60563 whole entry partner): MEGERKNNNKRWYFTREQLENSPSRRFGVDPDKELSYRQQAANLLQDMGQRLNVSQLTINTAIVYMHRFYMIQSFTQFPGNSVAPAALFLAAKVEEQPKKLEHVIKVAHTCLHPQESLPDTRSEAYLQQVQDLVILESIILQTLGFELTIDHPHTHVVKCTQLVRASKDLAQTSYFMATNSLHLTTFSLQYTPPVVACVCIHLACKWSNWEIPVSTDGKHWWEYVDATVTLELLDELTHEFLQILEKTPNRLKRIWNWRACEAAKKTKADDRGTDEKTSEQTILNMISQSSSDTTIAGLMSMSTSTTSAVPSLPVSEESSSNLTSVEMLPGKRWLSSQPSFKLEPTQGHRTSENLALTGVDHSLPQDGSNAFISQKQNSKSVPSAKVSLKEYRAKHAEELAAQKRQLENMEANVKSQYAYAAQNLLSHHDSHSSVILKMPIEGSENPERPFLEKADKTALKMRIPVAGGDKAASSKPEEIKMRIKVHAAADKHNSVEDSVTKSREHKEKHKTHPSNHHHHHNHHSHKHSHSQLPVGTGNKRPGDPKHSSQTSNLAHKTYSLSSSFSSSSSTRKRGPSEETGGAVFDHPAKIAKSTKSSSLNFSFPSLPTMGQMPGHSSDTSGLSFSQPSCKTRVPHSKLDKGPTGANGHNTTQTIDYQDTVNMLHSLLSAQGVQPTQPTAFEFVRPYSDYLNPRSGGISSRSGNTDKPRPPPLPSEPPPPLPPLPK
The test is described as follows: CDK9/cyclinT1 kinase assay, IMAP fluorescence polarization. In kind it is biochemical. The gist of the method:
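Recombinant purified enzyme complexes assayed by IMAP fluorescence polarization with 1% final DMSO, 2 h at room temperature; stopped with 1× Developer buffer (85% A/15% B) plus IMAP beads 1/400, then 1 h further at room temperature. IC50 from normalized mP versus log compound concentration.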

In test [7] the target is T3, CDK2/cyclinA (Homo sapiens, UniProt P24941).
T3 construct: purchased Millipore
The test is described as follows: CDK2/cyclinA kinase assay, IMAP fluorescence polarization. In kind it is biochemical. The gist of the method: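 Recombinant purified enzyme reactions run 2 hours at room temperature with 1% DMSO final. Stopped with 1× Developer buffer (100% A) and IMAP beads 1/400, then 1 hour more before fluorescence polarization read. IC50 from mP values versus log concentration.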

Test [8] addresses T4, CDK7/cyclinH/MAT1 (Homo sapiens, UniProt P50613).
T4 construct: purchased Millipore
The test is described as follows: CDK7/cyclinH/Mat1 kinase assay, IMAP fluorescence polarization. In kind it is biochemical. As to the method: Kinase assays were performed on recombinant purified enzymes using the non-radioactive IMAP fluorescence polarization assay format.
Compound stocks were prepared and diluted in DMSO and were added to kinase reactions at a 1/100 dilution for a final concentration of 1% DMSO. The components were added together to final concentrations listed in the tables below and incubated for two hours at room temperature.
The reactions were stopped by addition of stop solution.
CDK9/CDK1/CDK7: final stop concentration is 1× Developer buffer (85% A/15% B), IMAP beads 1/400
The samples were allowed to incubate for one more hour at room temperature and then the fluorescence polarization was measured. The plate normalized millipolarization (mP) values were plotted against the log of compound concentration for each compound and IC50 values were calculated using the spotfire IC50 calculator and confirmed by visual analysis.

Chain of CDK4 (P11802 whole entry, species assumed): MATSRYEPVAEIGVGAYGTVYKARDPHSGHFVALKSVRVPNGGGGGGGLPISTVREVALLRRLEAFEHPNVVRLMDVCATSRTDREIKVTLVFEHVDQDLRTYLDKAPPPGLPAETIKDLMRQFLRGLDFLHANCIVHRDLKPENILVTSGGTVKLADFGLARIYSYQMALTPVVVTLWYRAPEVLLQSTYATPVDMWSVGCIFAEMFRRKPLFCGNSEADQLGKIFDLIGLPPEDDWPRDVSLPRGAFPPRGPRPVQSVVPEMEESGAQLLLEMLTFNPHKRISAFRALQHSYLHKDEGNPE
Chain of CDK4 (P24385 whole entry partner, species assumed): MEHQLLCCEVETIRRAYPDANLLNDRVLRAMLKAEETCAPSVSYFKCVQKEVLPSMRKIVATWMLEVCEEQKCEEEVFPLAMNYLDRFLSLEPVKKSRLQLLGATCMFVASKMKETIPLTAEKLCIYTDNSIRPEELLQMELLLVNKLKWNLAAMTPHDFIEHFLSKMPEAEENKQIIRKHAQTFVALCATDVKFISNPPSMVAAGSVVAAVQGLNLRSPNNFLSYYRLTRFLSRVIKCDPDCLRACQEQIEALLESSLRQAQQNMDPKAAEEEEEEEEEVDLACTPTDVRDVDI
T1 sequence (P06493 whole entry): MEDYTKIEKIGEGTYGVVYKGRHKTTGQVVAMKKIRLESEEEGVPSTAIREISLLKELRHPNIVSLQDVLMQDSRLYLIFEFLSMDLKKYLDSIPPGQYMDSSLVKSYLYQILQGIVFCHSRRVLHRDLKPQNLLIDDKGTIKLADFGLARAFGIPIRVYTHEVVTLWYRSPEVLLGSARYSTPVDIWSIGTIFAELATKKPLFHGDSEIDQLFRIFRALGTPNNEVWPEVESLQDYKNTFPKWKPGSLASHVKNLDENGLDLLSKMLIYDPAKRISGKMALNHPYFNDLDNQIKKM
T1 sequence (P14635 whole entry partner): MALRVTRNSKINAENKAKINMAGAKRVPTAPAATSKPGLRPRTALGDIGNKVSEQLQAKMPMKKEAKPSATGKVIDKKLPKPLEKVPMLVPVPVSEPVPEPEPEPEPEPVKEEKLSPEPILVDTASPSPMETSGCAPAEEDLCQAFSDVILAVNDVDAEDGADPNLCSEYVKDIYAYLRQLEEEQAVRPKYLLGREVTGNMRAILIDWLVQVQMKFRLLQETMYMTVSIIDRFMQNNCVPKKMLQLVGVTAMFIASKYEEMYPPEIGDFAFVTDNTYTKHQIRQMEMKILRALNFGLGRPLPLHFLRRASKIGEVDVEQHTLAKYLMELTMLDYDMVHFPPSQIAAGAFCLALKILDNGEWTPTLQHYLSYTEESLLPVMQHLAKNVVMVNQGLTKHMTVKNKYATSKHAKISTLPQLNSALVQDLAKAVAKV
Chain of CDK5 (Q00535 whole entry, species assumed): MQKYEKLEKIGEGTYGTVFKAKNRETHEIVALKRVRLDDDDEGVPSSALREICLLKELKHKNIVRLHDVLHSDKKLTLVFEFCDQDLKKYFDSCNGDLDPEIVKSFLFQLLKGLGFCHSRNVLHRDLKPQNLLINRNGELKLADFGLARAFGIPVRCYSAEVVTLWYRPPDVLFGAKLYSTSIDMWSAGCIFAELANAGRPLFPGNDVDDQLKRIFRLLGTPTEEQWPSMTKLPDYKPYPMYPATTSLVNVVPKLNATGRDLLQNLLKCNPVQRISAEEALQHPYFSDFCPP
Chain of CDK5 (Q15078 whole entry partner, species assumed): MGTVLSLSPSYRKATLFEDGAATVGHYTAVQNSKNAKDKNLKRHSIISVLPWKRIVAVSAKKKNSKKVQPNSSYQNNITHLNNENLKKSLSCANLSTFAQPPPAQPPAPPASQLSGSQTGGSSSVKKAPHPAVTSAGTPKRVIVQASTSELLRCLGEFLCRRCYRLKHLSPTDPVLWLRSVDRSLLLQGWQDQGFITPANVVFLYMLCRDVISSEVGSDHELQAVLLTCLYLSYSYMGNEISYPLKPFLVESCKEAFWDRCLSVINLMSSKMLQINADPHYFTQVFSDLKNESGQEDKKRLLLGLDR
T4 sequence (P50613 whole entry): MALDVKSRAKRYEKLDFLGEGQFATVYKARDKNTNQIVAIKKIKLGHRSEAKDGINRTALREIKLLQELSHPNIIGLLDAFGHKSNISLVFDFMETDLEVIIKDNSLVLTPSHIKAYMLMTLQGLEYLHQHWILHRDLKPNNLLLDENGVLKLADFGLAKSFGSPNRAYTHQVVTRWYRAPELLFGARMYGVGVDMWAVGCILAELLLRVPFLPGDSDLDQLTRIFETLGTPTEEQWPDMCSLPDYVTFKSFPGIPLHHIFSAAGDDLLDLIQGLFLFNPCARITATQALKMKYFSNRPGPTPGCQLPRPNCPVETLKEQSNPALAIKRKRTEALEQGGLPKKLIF
T4 sequence (P51946 whole entry partner): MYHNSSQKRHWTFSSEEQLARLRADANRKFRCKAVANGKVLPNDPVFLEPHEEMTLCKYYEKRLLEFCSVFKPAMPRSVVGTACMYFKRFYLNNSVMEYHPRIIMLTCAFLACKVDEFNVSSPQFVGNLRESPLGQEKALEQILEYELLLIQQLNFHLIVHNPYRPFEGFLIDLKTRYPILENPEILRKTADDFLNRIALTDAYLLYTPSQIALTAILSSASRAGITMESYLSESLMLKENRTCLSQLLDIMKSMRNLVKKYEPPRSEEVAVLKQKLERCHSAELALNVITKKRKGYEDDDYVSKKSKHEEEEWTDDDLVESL
T4 sequence (P51948 whole entry partner): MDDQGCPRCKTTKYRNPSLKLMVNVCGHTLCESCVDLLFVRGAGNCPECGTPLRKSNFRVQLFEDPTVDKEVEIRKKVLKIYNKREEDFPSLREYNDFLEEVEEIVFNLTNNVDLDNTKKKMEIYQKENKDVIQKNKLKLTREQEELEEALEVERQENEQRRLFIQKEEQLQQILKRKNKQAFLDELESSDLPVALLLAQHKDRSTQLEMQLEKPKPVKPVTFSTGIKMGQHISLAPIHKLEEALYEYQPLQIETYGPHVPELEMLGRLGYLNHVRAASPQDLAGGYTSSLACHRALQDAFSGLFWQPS

Regarding `COc1ccc(CNc2nc(N(CCO)CCO)nc3c2ncn3C(C)C)cc1` [CVT-313], the “inhibition of neointima formation” value in test [1] was “greater than 80%”.
As a reminder, the IC50 is the concentration at which inhibition is half-maximal. In the case of `OCCCNc1ncccc1-c1ccnc(Nc2cccc(Cl)c2)n1` [Compound 74, 3-{3-[2-(3-Chloro-phenylamino)-pyrimidin-4-yl]-pyridin-2-ylamino}-propan-1-ol], the IC50 in test [2] is 15 to 50 µM; in test [3] it was < 5 µM; in test [4], < 5 µM; in test [5] it was < 5 µM; in test [6], < 5 µM; in test [7], < 5 µM. For the same compound, in test [8], the IC50 was < 5 µM.
On to `Clc1cccc(Nc2nccc(-c3cccnc3NCCCn3ccnc3)n2)c1` [Compound 80, (3-Chloro-phenyl)-{4-[2-(3-imidazol-1-yl-propylamino)-pyridin-3-yl]-pyrimidin-2-yl}-amine], for which the concentration for half-maximal inhibition (IC50) in test [2] is 5 to 15 µM; in test [3], < 5 µM; in test [4], < 5 µM; in test [5], < 5 µM; in test [6], < 5 µM; in test [7], < 5 µM. In addition, the IC50 in test [8] was < 5 µM.
Regarding `COc1ncccc1-c1ccnc(Nc2cccc(C#N)c2)n1` [Compound 91, 3-[4-(2-Methoxy-pyridin-3-yl)-pyrimidin-2-ylamino]-benzonitrile], the IC50 is 15 to 50 µM in test [2]; < 5 µM in test [3]; > 50 µM in test [4]; < 5 µM in test [5]; < 5 µM in test [6]; < 5 µM in test [7]. Besides, in test [8], the IC50 was > 50 µM.
As for `COc1ncccc1-c1ccnc(Nc2cccc(S(N)(=O)=O)c2)n1` [Compound 99, 3-[4-(2-Methoxy-pyridin-3-yl)-pyrimidin-2-ylamino]-benzenesulfonamide], the IC50 in test [2], in test [3], in test [4], in test [5], in test [6] and in test [7] was < 5 µM each time. The IC50 in test [8] was in the range of 5 to 15 µM.
With `COc1ccc(-c2ccnc(Nc3cccc(S(C)(=O)=O)c3)n2)c(OC)n1` [Compound 119, [4-(2,6-Dimethoxy-pyridin-3-yl)-pyrimidin-2-yl]-(3-methanesulfonyl-phenyl)-amine], the IC50 in test [2] was 15 to 50 µM; in test [3], 5 to 15 µM; in test [4], > 50 µM; in test [5], < 5 µM; in test [6] it was < 5 µM; in test [7], < 5 µM. Also, in test [8], the IC50 was > 50 µM.

Source of the values: patent US20100048597A1 (Novartis AG, priority 2006, published 2010).
